The text below walks through data of patent US11014895B2, “Heterocyclic urea compound, and drug composition and application thereof” (CHINA PHARMACEUTICAL UNIVERSITY, priority 2017, dated 2021).

Assay [1] addresses IDO1 enzyme (Homo sapiens, UniProt P14902). As to the kind of experiment: Determination of biochemical activity of IDO1 enzyme (absorbance at 320 nm). The following applies: room temperature, 3 hours. As for the experimental part: (1) Method for Determining Biochemical Activity of IDO1 Enzyme
Firstly, 15 μl of buffer solution of sodium hydrogen phosphate (PH:7-8), 5 μl of reaction buffer solution containing a proper amount of IDO-1 enzyme and heterocyclic urea compound prepared by the invention were added into wells of a microplate, mixed evenly, and reacted at room temperature for 3 hours; then a light absorption value at 320 nm wavelength was detected by using Envision Multilabel Reader of PE company, an inhibition rate of the heterocyclic urea compound on the enzyme reaction was calculated according to an absorption ratio, and an IC50 value of the heterocyclic urea compound was calculated through analysis by GraphPad.

Assay [2] concerns the target T1, IDO1 enzyme in the Hela cell (Homo sapiens, UniProt P14902).
T1 construct: endogenous in cells; host or cells: HeLa cells stimulated with interferon γ (100 ng/ml)
As to the kind of experiment: Cell activity: interferon γ-stimulated Hela cells, absorbance of supernatant at 480 nm. The following applies: interferon γ 100 ng/ml, 72 hours. Type of assay: cell-based. As for the experimental part: (2) Method for Determining Cell Activity
Hela cells were cultured and passaged in a DMEM medium supplemented with antibiotics in a 37° C. CO2 incubator, inoculated into a 96-well plate for overnight culture, then 1 μl of heterocyclic urea compound with appropriate concentration was added to each well, and then 100 μl of interferon γ (final concentration was 100 ng/ml) was added. After the cells were continuously cultured for 72 hours, 70 μl of cell culture supernatant was added to a 96-well V-bottom plate, 5 μl of trichloroacetic acid (6.1 N) was added to each well, incubated at 50° C. for 30 min, then taken out and centrifuged at […] for 10 min. The above centrifuged supernatant was transferred to a 384-well microplate (20 μl/well), then 20 μl of 2% didimethylaminobenzaldehyde acetic acid solution was added to each well, shaken and mixed evenly, then photometric absorption was performed at 480 nm, and values were measured.

Chain of IDO1 enzyme (P14902 whole entry): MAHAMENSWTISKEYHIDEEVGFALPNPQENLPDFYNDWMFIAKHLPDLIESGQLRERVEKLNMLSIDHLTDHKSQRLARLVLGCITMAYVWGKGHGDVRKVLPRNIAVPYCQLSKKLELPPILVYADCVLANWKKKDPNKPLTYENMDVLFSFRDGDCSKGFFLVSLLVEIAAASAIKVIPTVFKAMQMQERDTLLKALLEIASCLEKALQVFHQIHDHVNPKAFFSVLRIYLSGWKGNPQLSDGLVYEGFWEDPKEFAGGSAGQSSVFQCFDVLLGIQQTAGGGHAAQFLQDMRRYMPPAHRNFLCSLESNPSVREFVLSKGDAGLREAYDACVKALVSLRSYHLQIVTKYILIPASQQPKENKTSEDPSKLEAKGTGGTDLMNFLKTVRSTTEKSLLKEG
T1 sequence (P14902 whole entry): as above

A word on the IC50: it is the concentration at which inhibition is half-maximal. A higher IC50 goes with a need for much substance. For `COc1ccc(NC(=N)Nc2nonc2/C(=N/O)Nc2ccc(F)c(Br)c2)cc1` [Embodiment 139, (Z)-1-(4-(N-(3-bromo-4-fluorophenyl)-N′-hydroxyaminoiminomethyl)-1,2,5-oxadiazole-3-substituted)-3-(4-methoxyphenyl)guanidine], the IC50 in assay [1] and in assay [2] was < 0.001 µM each time.

`O=C(Nc1nocc1/C(=N/O)Nc1ccc(F)c(Br)c1)Nc1cccc2[nH]ccc12` [Embodiment 94, (Z)-1-(4-(N-(3-bromo-4-fluorophenyl)-N′-hydroxyaminoiminomethyl)-isoxazole-3-substituted)-3-(4-aminoindole)urea]: the IC50 in assay [1] and in assay [2] was 0.1 to 1 µM each time.

Turning to `NS(=O)(=O)N1CCN(C(=O)Nc2nonc2/C(=N/O)Nc2ccc(F)cc2)CC1` [Embodiment 56], the IC50 in assay [1] and in assay [2] was < 0.001 µM each time.

As for `O/N=C(\Nc1ccc(F)c(Br)c1)c1cocc1NC(=S)Nc1ccccc1` [Embodiment 137, (Z)-1-(4-(N-(3-bromo-4-fluorophenyl)-N′-hydroxyaminoiminomethyl)-furan-3-substituted)-3-phenylthiourea], the IC50 in assay [1] and in assay [2] was 0.1 to 1 µM throughout.

As to `O=C(Nc1cocc1/C(=N/O)Nc1ccc(F)c(Br)c1)Nc1c[nH]c2ccccc12` [Embodiment 74, (Z)-1-(4-(N-(3-bromo-4-fluorophenyl)-N′-hydroxyaminoiminomethyl)-furan-3-substituted)-3-(3-aminoindole)urea], the IC50 in assay [1] and in assay [2] was 0.1 to 1 µM each time.

Consider `COc1ccc(NC(=O)Nc2nocc2/C(=N/O)Nc2ccc(F)c(Cl)c2)cc1` [Embodiment 97, (Z)-1-(4-(N-(3-chloro-4-fluorophenyl)-N′-hydroxyaminoiminomethyl)-isoxazole-3-substituted)-3-(4-methoxyphenyl)urea], for which the IC50 in assay [1] and in assay [2] was 0.1 to 1 µM throughout.

On to `O=C(Nc1ccccc1)Nc1nocc1/C(=N/O)Nc1ccc(F)c(Cl)c1` [Embodiment 98, (Z)-1-(4-(N-(3-chloro-4-fluorophenyl)-N′-hydroxyaminoiminomethyl)-isoxazole-3-substituted)-3-(phenyl)urea], for which the IC50 in assay [1] and in assay [2] was 0.1 to 1 µM each time.

Consider `CC1CCC(NC(=O)Nc2nonc2/C(=N/O)Nc2ccc(F)c(Br)c2)CC1` (stereo not shown) [Embodiment 9, (Z)-1-(4-(N-(3-bromo-4-fluorophenyl)-N′-hydroxyaminoiminomethyl)-1,2,5-oxadiazole-3-substituted)-3-(4-methylcyclohexyl)urea], for which the IC50 in assay [1] and in assay [2] was > 1 µM in each case.

For the compound `N=C(Nc1nonc1/C(=N/O)Nc1ccc(F)c(Br)c1)NC1CCC(N)CC1` (stereo not shown) [Embodiment 150, (Z)-1-(4-(N-(3-bromo-4-fluorophenyl)-N′-hydroxyaminoiminomethyl)-1,2,5-oxadiazole-3-substituted)-3-(4-aminocyclohexyl)guanidine], the IC50 in assay [1] and in assay [2] was 0.1 to 1 µM in each case.

Take `CS(=O)(=O)N1CCN(C(=O)Nc2nonc2/C(=N/O)Nc2ccc(F)c(Br)c2)CC1` [Embodiment 50]: the IC50 in assay [1] and in assay [2] was 0.1 to 1 µM throughout.

With `O=C(Nc1conc1/C(=N/O)Nc1ccc(F)c(Br)c1)NC1CCCCC1` [Embodiment 103], the IC50 in assay [1] and in assay [2] was 0.1 to 1 µM throughout.

On to `COc1ccc(NC(=S)Nc2cocc2/C(=N/O)Nc2ccc(F)c(Br)c2)cc1` [Embodiment 136, (Z)-1-(4-(N-(3-bromo-4-fluorophenyl)-N′-hydroxyaminoiminomethyl)-furan-3-substituted)-3-(4-methoxyphenyl)thiourea], for which the IC50 in assay [1] and in assay [2] was > 1 µM in each case.

Regarding `COc1cccc(NC(=O)Nc2cocc2/C(=N/O)Nc2ccc(F)c(Br)c2)c1` [Embodiment 59, (Z)-1-(4-(N-(3-bromo-4-fluorophenyl)-N′-hydroxyaminoiminomethyl)-furan-3-substituted)-3-(3-methoxyphenyl)urea], the IC50 in assay [1] and in assay [2] was > 1 µM in each case.

For `O=C(Nc1cccnc1)Nc1nocc1/C(=N/O)Nc1ccc(F)c(Br)c1` [Embodiment 96, (Z)-1-(4-(N-(3-bromo-4-fluorophenyl)-N′-hydroxyaminoiminomethyl)-isoxazole-3-substituted)-3-(3-aminopyridine)urea], the IC50 in assay [1] and in assay [2] was 0.1 to 1 µM throughout.

Consider `O/N=C(\Nc1ccc(F)c(Br)c1)c1nonc1NC(=S)Nc1ccc(O)cc1` [Embodiment 117, (Z)-1-(4-(N-(3-bromo-4-fluorophenyl)-N′-hydroxyaminoiminomethyl)-1,2,5-oxadiazole-3-substituted)-3-(4-hydroxyphenyl)thiourea], for which the IC50 in assay [1] and in assay [2] was < 0.001 µM in each case.

As for “(Z)-1-(4-(N-(3-bromo-4-fluorophenyl)-N′-hydroxyaminoiminomethyl)-isoxazole-3-substituted)-3-phenylurea [Embodiment 81]”, the IC50 in assay [1] and in assay [2] was 0.1 to 1 µM in each case.

As to `NCCNC(=O)Nc1conc1/C(=N/O)Nc1ccc(F)c(Br)c1` [Embodiment 111], the IC50 in assay [1] and in assay [2] was < 0.001 µM in each case.

In the case of `O=C(Nc1nocc1/C(=N/O)Nc1ccc(F)c(Br)c1)NC1CC1` [Embodiment 86, (Z)-1-(4-(N-(3-bromo-4-fluorophenyl)-N′-hydroxyaminoiminomethyl)-isoxazole-3-substituted)-3-(cyclopropyl)urea], the IC50 in assay [1] and in assay [2] was > 1 µM in each case.

For `O=C(NCCO)Nc1nocc1/C(=N/O)Nc1ccc(F)c(Br)c1` [Embodiment 89, (Z)-1-(4-(N-(3-bromo-4-fluorophenyl)-N′-hydroxyaminoiminomethyl)-isoxazole-3-substituted)+3-(2-hydroxyethyl)urea], the IC50 in assay [1] and in assay [2] was < 0.001 µM throughout.

Turning to `OCCCNC(=S)Nc1nonc1/C(=N/O)Nc1ccc(F)c(Br)c1` [Embodiment 127, (Z)-1-(4-(N-(3-bromo-4-fluorophenyl)-N′-hydroxyaminoiminomethyl)-1,2,5-oxadiazole-3-substituted)-3-(3-hydroxypropyl)thiourea], the IC50 in assay [1] and in assay [2] was < 0.001 µM each time.

Take `COc1ccc(NC(=O)Nc2nonc2/C(=N/O)Nc2ccc(F)c(Br)c2)cc1C(F)(F)F` [Embodiment 21, (Z)-1-(4-(N-(3-bromo-4-fluorophenyl)-N′-hydroxyaminoiminomethyl)-1,2,5-oxadiazole-3-substituted)-3-(4-methoxy-2-trifluoromethylphenyl)urea]: the IC50 in assay [1] and in assay [2] was 0.1 to 1 µM each time.

Turning to `COc1ccc(NC(=N)Nc2cocc2/C(=N/O)Nc2ccc(F)c(Br)c2)cc1` [Embodiment 160, (Z)-1-(4-(N-(3-bromo-4-fluorophenyl)-N′-hydroxyaminoiminomethyl)-furan-3-substituted)-3-(4-methoxyphenyl)guanidine], the IC50 in assay [1] and in assay [2] was 0.1 to 1 µM throughout.

For the compound `CC(C)NC(=O)Nc1nocc1/C(=N/O)Nc1ccc(F)c(Br)c1` [Embodiment 92, (Z)-1-(4-(N-(3-bromo-4-fluorophenyl)-N′-hydroxyaminoiminomethyl)-isoxazole-3-substituted)-3-(isopropyl)urea], the IC50 in assay [1] and in assay [2] was 0.1 to 1 µM throughout.
